Test results as given in PubChem BioAssay AID1259411 (Chemical Carcinogenesis Research Information System (CCRIS), 2018).
The source made the active and inactive calls. How the calls were made is not given here.

Tested on: rodent carcinogenicity bioassays, tumor incidence
Experiment: CCRIS carcinogenicity studies
Summary of the method: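 Archive of carcinogenicity, mutagenicity, tumor promotion and tumor inhibition results drawn from journals, NCI reports and other sources, expert-reviewed; covers 1985-2011 and is no longer updated.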

Measured: carcinogen call

C[N+](=O)[O-]
active: Species: MOUSE, Strain/Sex: B6C3F1/FEMALE, Route: INHALATION, Dose: 0, 188, 375, 750 PPM 6 HR/D 5 D/WK FOR 103 WK (STUDY DURATION: 105 WK), Dose: 0, 188, 375, 750 PPM 6 HR/D 5 D/WK FOR 103 WK (STUDY DURATION: 105 WK), Tumor Site: Type of Lesion: HARDERIAN GLAND: ADENOMA, LIVER: HEPATOCELLULAR ADENOMA, LUNG: ALVEOLAR/BRONCHIOLAR ADENOMA, ALVEOLAR/BRONCHIOLAR CARCIN, Tumor Site: Type of Lesion: HARDERIAN GLAND: ADENOMA, LIVER: HEPATOCELLULAR ADENOMA, LUNG: ALVEOLAR/BRONCHIOLAR ADENOMA, ALVEOLAR/BRONCHIOLAR CARCIN active; positive | Species: MOUSE, Strain/Sex: B6C3F1/MALE, Route: INHALATION, Dose: 0, 188, 375, 750 PPM 6 HR/D 5 D/WK FOR 103 WK (STUDY DURATION: 105 WK), Dose: 0, 188, 375, 750 PPM 6 HR/D 5 D/WK FOR 103 WK (STUDY DURATION: 105 WK), Tumor Site: Type of Lesion: HARDERIAN GLAND: CARCINOMA, ADENOMA, LUNG: ALVEOLAR/BRONCHIOLAR CARCINOMA active; positive | Species: RAT, Strain/Sex: F344/FEMALE, Route: INHALATION, Dose: 0, 94, 188, 375 PPM 6 HR/D 5 D/WK FOR 103 WK (STUDY DURATION: 104 WK), Dose: 0, 94, 188, 375 PPM 6 HR/D 5 D/WK FOR 103 WK (STUDY DURATION: 104 WK), Tumor Site: Type of Lesion: MAMMARY GLAND: FIBROADENOMA, CARCINOMA active; positive
inactive: Species: GUPPIE, Strain/Sex: FEMALE, Route: AQUARIUM WATER, Dose: 0, 10, 30, 70 MG/L FOR 16 MO (STUDY DURATION: 16 MO), Dose: 0, 10, 30, 70 MG/L FOR 16 MO (STUDY DURATION: 16 MO) inactive; negative | Species: MEDAKA, Strain/Sex: FEMALE, Route: AQUARIUM WATER, Dose: 0, 10, 20, 40 MG/L FOR 13 MO (STUDY DURATION: 13 MO), Dose: 0, 10, 20, 40 MG/L FOR 13 MO (STUDY DURATION: 13 MO) inactive; negative | Species: MEDAKA, Strain/Sex: MALE, Route: AQUARIUM WATER, Dose: 0, 10, 20, 40 MG/L FOR 13 MO (STUDY DURATION: 13 MO), Dose: 0, 10, 20, 40 MG/L FOR 13 MO (STUDY DURATION: 13 MO) inactive; negative | Species: RAT, Strain/Sex: F344/MALE, Route: INHALATION, Dose: 0, 94, 188, 375 PPM 6 HR/D 5 D/WK FOR 103 WK (STUDY DURATION: 104 WK), Dose: 0, 94, 188, 375 PPM 6 HR/D 5 D/WK FOR 103 WK (STUDY DURATION: 104 WK) inactive; negative | Species: RAT, Strain/Sex: LONG-EVANS/FEMALE, Route: INHALATION, Dose: 0, 100, 200 PPM 7 HR/D 5 D/WK FOR 2 YR (STUDY DURATION: 2 YR), Dose: 0, 100, 200 PPM 7 HR/D 5 D/WK FOR 2 YR (STUDY DURATION: 2 YR) inactive; negative | Species: RAT, Strain/Sex: LONG-EVANS/MALE, Route: INHALATION, Dose: 0, 100, 200 PPM 7 HR/D 5 D/WK FOR 2 YR (STUDY DURATION: 2 YR), Dose: 0, 100, 200 PPM 7 HR/D 5 D/WK FOR 2 YR (STUDY DURATION: 2 YR) inactive; negative

O=C(O)/C=C/c1ccc(O)c(O)c1
active: Species: MOUSE, Strain/Sex: B6C3F1/FEMALE, Route: ORAL, Dose: 0, 2% IN DIET FOR 96 WK (STUDY DURATION: 96 WK), Tumor Site: Type of Lesion: KIDNEY (TUBULAR CELL): ADENOMA active; positive | Species: MOUSE, Strain/Sex: B6C3F1/MALE, Route: ORAL, Dose: 0, 2% IN DIET FOR 96 WK (STUDY DURATION: 96 WK), Tumor Site: Type of Lesion: LUNG (ALVEOLAR CELL): ADENOMA OR ADENOCARCINOMA active; positive | Species: RAT, Strain/Sex: F344/FEMALE, Route: ORAL, Dose: 0, 2% IN DIET FOR 104 WK (STUDY DURATION: 104 WK), Tumor Site: Type of Lesion: FORESTOMACH: PAPILLOMA, CARCINOMA active; positive | Species: RAT, Strain/Sex: F344/FEMALE, Route: ORAL, Dose: 0, 2% IN DIET FOR 104 WK (STUDY DURATION: 104 WK), Tumor Site: Type of Lesion: FORESTOMACH: SQUAMOUS CELL CARCINOMA active; positive | Species: RAT, Strain/Sex: F344/FEMALE, Route: ORAL, Dose: 0, 2% IN POWDERED BASAL DIET FOR 104 WK (STUDY DURATION: 104 WK), Tumor Site: Type of Lesion: FORESTOMACH: PAPILLOMA, SQUAMOUS CELL CARCINOMA active; positive | Species: RAT, Strain/Sex: F344/MALE, Route: ORAL, Dose: 0, 0.4% IN DIET FOR DURATION OF STUDY (STUDY DURATION: 104 WK), Tumor Site: Type of Lesion: FORESTOMACH: PAPILLOMA active; positive | Species: RAT, Strain/Sex: F344/MALE, Route: ORAL, Dose: 0, 2% IN DIET FOR 104 WK (STUDY DURATION: 104 WK), Tumor Site: Type of Lesion: FORESTOMACH: PAPILLOMA, CARCINOMA active; positive | Species: RAT, Strain/Sex: F344/MALE, Route: ORAL, Dose: 0, 2% IN DIET FOR 104 WK (STUDY DURATION: 104 WK), Tumor Site: Type of Lesion: FORESTOMACH: SQUAMOUS CELL CARCINOMA active; positive | Species: RAT, Strain/Sex: F344/MALE, Route: ORAL, Dose: 0, 2% IN POWDERED BASAL DIET FOR 104 WK (STUDY DURATION: 104 WK), Tumor Site: Type of Lesion: FORESTOMACH: PAPILLOMA, SQUAMOUS CELL CARCINOMA active; positive | Species: RAT, Strain/Sex: F344/MALE, Route: ORAL, Dose: 2% IN THE DIET FOR 104 WK (STUDY DURATION: 104 WK), Tumor Site: Type of Lesion: FORESTOMACH: PAPILLOMA, SQUAMOUS CELL CARCINOMA active; positive
inactive: Species: MOUSE, Strain/Sex: B6C3F1/FEMALE, Route: ORAL, Dose: 0, 2% IN POWDERED BASAL DIET FOR 96 WK (STUDY DURATION: 96 WK) inactive; negative | Species: MOUSE, Strain/Sex: B6C3F1/MALE, Route: ORAL, Dose: 0, 2% IN POWDERED BASAL DIET FOR 96 WK (STUDY DURATION: 96 WK) inactive; negative

O=CN(O)c1ccc(/C=C/c2ccccc2)cc1
active: Species: RAT, Strain/Sex: STRAIN-CD/FEMALE, Route: INTRAPERITONEAL, Dose: 0, 10 UMOL/KG BW 2/WK FOR 6 WK (STUDY DURATION: 62 WK), Tumor Site: Type of Lesion: LIVER: NEOPLASTIC NODULE, MAMMARY GLAND: TUMOR active; positive | Species: RAT, Strain/Sex: STRAIN-CD/MALE, Route: INTRAPERITONEAL, Dose: 0, 10 UMOL/KG BW 2/WK FOR 6 WK (STUDY DURATION: 62 WK), Tumor Site: Type of Lesion: TESTICLE: MESOTHELIOMA, PANCREAS(ACINUS): ADENOMA active; positive

CN(C)CCC(c1ccc(Cl)cc1)c1ccccn1 (centres undefined)
inactive: Species: MOUSE, Strain/Sex: B6C3F1/FEMALE, Route: GAVAGE, Dose: 0, 100, 200 MG/KG IN DEIONIZED WATER 5 D/WK FOR 103 WK, Dose: 0, 100, 200 MG/KG IN DEIONIZED WATER 5 D/WK FOR 103 WK inactive; negative | Species: MOUSE, Strain/Sex: B6C3F1/MALE, Route: GAVAGE, Dose: 0, 25, 50 MG/KG IN DEIONIZED WATER 5 D/WK FOR 103 WK, Dose: 0, 25, 50 MG/KG IN DEIONIZED WATER 5 D/WK FOR 103 WK inactive; negative | Species: RAT, Strain/Sex: F344/FEMALE, Route: GAVAGE, Dose: 0, 30, 60 MG/KG IN DEIONIZED WATER 5 D/WK FOR 103 WK, Dose: 0, 30, 60 MG/KG IN DEIONIZED WATER 5 D/WK FOR 103 WK inactive; negative | Species: RAT, Strain/Sex: F344/FEMALE, Route: ORAL, Dose: 0, 1000 PPM IN DIET FOR 106 WK (STUDY DURATION: 130 WK) inactive; negative | Species: RAT, Strain/Sex: F344/MALE, Route: GAVAGE, Dose: 0, 15, 30 MG/KG IN DEIONIZED WATER 5 D/WK FOR 103 WK, Dose: 0, 15, 30 MG/KG IN DEIONIZED WATER 5 D/WK FOR 103 WK inactive; negative | Species: RAT, Strain/Sex: F344/MALE, Route: ORAL, Dose: 0, 1000 PPM IN DIET FOR 106 WK (STUDY DURATION: 130 WK) inactive; negative
